According to BindingDB's records for doi:10.1021/jm00114a027 (Research Biochemicals, 1991):

Assay: Compound was tested for binding affinity to dopamine reuptake sites in the tissue homogenates prepared from […] striatum using [3H]CFT as radioligand

SMILES	IC50
COC(=O)[C@@H]1C2CC[C@H](C[C@@H]1c1ccc(I)cc1)N2C	1.6 nM
COC(=O)C1C(c2ccc(I)cc2)CC2CCC1N2C [(3S,5R)-methyl 3-(4-iodophenyl)-8-methyl-8-aza-bicyclo[3.2.1]octane-2-carboxylate]	88 nM
